Data on two substances can be found in patent US8993721B2, “Peptides for targeting apoptotic cells and uses thereof” (Kyungpook National University Industry-Academic Cooperation …, priority 2008, dated 2015).

“Also recorded” adds a separate entry of the source. Where no end group is shown, it is not given here.

Data set [1] relates to etoposide-treated apoptotic cells (A549, H460, HeLa, L132, RAW). Nature of the data set: Microscopic observation of binding of the peptide to apoptotic cells (Example 3-1). The format is cell-based. On the procedure:
Cells were cultured in chamber slide (Nalgene Nunc) and treated with 50 μM etoposide (Sigma) for a given period of time (A549 and HeLa cells: for 15 hours, H460 cells: 24 hours, L132 cells: 3 hours, RAW cells: 6 hours) to induce apoptosis. The cells were cultured in RMPI-1640 medium (A549 and H460 cells) or DMEM (HeLa, L132 and RAW cells) containing antibiotics (penicillin and streptomycin) and 10% FBS. All the cells were subcultured every 3 or 4 days. The apoptosis-induced apoptotic cells were washed with PBS and blocked with 1% BSA at 37° C. for 30 minutes. Then, the cells were reacted with 10 μM of the peptide labeled with fluorescein, at 4° C. for 1 hour. After washing, the cells were reacted with an annexin V reaction buffer containing Alexa594-labeled annexin V (Molecular Probes), at room temperature for 15 minutes. The cells were washed with PBS and then fixed with 4% paraformaldehyde for 5 minutes. Thereafter, after counterstaining using the nuclear stain 4′,6-diamidino-2-phenylindole (DAPI), followed by treatment with a mounting solution (Molecular Probes), images of the cells were obtained under a fluorescence microscope (Zeiss).

Data set [2] relates to aorta of arteriosclerotic Ldlr(−/−) mouse. As to the kind of experiment: Molecular imaging of arteriosclerosis (Example 5). The format is in vivo. The method, then:
An arteriosclerotic animal model was established by feeding mice, in which low-density lipoprotein (LDL) receptor was deficient (Ldlr(−/−)) genetically, with a high-cholesterol diet for 8 weeks. At the tail vein of the arteriosclerotic mouse and normal mouse, the peptide having an amino sequence represented by SEQ ID NO: 1 (ApoPep-1) or a control peptide, labeled with Cy7.5 NIR fluorescence, was injected at a final concentration of 50 μM, under isoflurane anesthesia. Two hours later, with the mouse anesthetized, in vivo images of the NIR fluorescence were obtained using an Optix exPlore instrument. Following the in vivo imaging, NIR fluorescence was measured […] after isolating the aorta.

Data set [3] deals with heart of myocardial ischemic rat (ischemia/reperfusion model). As to the kind of experiment: Molecular imaging of myocardial ischemia (Example 7). Conditions: Cy7.5-labeled peptide i.v. 2 hours after reperfusion; imaged 2 hours after injection. The format is in vivo. The method, then:
A myocardial ischemia model was established by occluding the coronary artery of a rat, followed by reperfusion (ischemia/reperfusion model). For the operation, a rat was anesthetized by intra-abdominally injecting 10 mg of phenobarbital and, followed by endobronchial intubation, a ventilator was connected. Thereafter, the thorax was cut open to expose the heart. The left anterior descending coronary artery was occluded for 30 minutes using a suture and, then, the blood was allowed to circulate. For a control group (Sham), the same operation was performed, except for the occlusion. Two hours after the reperfusion, the peptide having an amino sequence represented by SEQ ID NO: 1 (ApoPep-1), labeled with Cy7.5 NIR fluorescence, was intravenously injected to the rats of the myocardial ischemia group and the control group. Two hours after the peptide injection, NIR images of the heart portion were obtained. Then, NIR images were obtained after isolating the heart.

A further data set relates to apoptotic A549 cells. As to the kind of experiment: Competitive inhibition of binding to apoptotic cells by annexin V treatment (Example 9-2). In kind it is cell-based, human. Conditions: annexin V 1000 μM pre-treatment. The method, then:
In order to further investigate the binding properties of the polypeptide of the present invention (ApoPep-2) to apoptotic cells, competitive inhibition by annexin V was measured. To this end, first, apoptotic A549 cells were pre-treated with annexin V, not labeled with fluorescence, at concentrations of 0, 500 and 1000 μM. Then, after reacting the cells with fluorescence-labeled annexin V under the same condition as described in Example <9-1>, the binding of the cells was observed under a fluorescence microscope.
Further, apoptotic A549 cells were pre-treated with annexin V, not labeled with fluorescence, at a concentration of 1000 μM. Then, after reacting the cells with fluorescence-labeled peptide under the same condition as described in Example <9-1>, the binding of the cells was observed under a fluorescence microscope.

In data set [4] the test system is etoposide-treated apoptotic A549 cells. Nature of the data set: FACS analysis of binding to apoptotic cells (Example 9-3). In kind it is cell-based, human. On the procedure:
As another way of confirming the binding of the polypeptide of the present invention (ApoPep-2) to apoptotic cells, apoptotic cells were treated with the peptide, labeled with fluorescein, and the binding was confirmed through FACS analysis. First, apoptosis was induced by treating A549 cells with 50 μM etoposide for 20 hours. The apoptotic cells or normal cells were reacted with ApoPep-2 (10 μM) or a control peptide at the same concentration, labeled with fluorescein, at 4° C. or 37° C. for 1 hour. Further, the cells were reacted with fluorescein-labeled annexin V at room temperature for 15 minutes. After washing cells with PBS, FACS analysis was performed using a FACS instrument (Becton Dickinson).
In general terms: A flow cytometer gives signals particle by particle.

The subject of data set [5] is A549 tumor xenotransplanted in nude mice. Nature of the data set: In vivo fluorescence imaging of targeting of apoptotic cells in tumor (Example 10). Also on record: species or system mouse. The method, then:
Nude mice in which tumor was xenotransplanted using A549 cells were prepared as in Example <8-1>. The mice were grouped into a doxorubicin (Sigma) treated group (Dox+) and untreated group (Dox−). The treated group was treated with doxorubicin (5 mg/kg) one time, 12 hours prior to injection of the peptide. At the tail vein of each mouse, the polypeptide of the present invention or a control peptide, labeled with fluorescein or Cy7.5 near-infrared fluorescent dye, was injected at a final concentration of 50 μM, under isoflurane anesthesia. Following the injection, in vivo fluorescence images were obtained 0.5 hours and every hour, from 1 hour to 4 hours, after the injection, using an Optix exPlore instrument (ART). The images were standardized using the software provided with the instrument.

Data set [6] relates to necrosis-induced A549 cells (glucose-depleted medium). Nature of the data set: Microscopic observation of binding of the peptide to necrotic cells (Example 9-4). Conditions: glucose-depleted medium 24 hours; 10 μM fluorescein-labeled peptide 4° C. 1 hour. In kind it is cell-based, human. The method, then:
A549 Cells were cultured in chamber slide (Nunc) and treated with glucose-depleted medium for 24 hours to induce necrosis. The necrosis-induced cells were washed with PBS and blocked with 1% BSA at 37° C. for 30 minutes. Then, the cells were reacted with 10 μM of the peptide labeled with fluorescein, at 4° C. for 1 hour. After washing, the cells were reacted with […] Hoechst […] dye and […] PI at 37° C. for 15 minutes. The cells were washed with PBS and then fixed with 4% paraformaldehyde for 5 minutes.

On to “CQRPPR (also: fluorescein or Cy7.5 label) [ApoPep-1, peptide CQRPPR screened for macrophages; used fluorescein- or Cy7.5-labeled]”, for which, in data set [1] (10 μM fluorescein-labeled peptide 4° C. 1 hour, Alexa594-annexin V), the “labeling of normal cells not treated with etoposide” value is reported as “no labeling was observed”. In data set [1] (50 μM etoposide, 10 μM fluorescein-labeled peptide 4° C. 1 hour, Alexa594-annexin V room temperature 15 minutes), the “labeling of etoposide-treated apoptotic cells (fluorescence microscopy)” value is “labeling was observed”. Moreover, in data set [1] (etoposide-treated apoptotic cells), the “location of peptide binding relative to annexin V binding (merge)” value was “at the same locations”. In addition, in data set [2] (Cy7.5-labeled peptide 50 μM), the “NIR fluorescence imaged from the back, normal mouse” value is “almost nonexistent”. The “NIR fluorescence imaged from the back, arteriosclerotic mouse, compared with control peptide” value in data set [2] (Cy7.5-labeled peptide 50 μM, tail vein, two hours later) is listed as “stronger NIR fluorescence”. In addition, the “NIR fluorescence after exposing the aorta by cutting the abdomen open, compared with control peptide” value in data set [2] (arteriosclerotic mouse) is recorded as “much stronger”. Also, the “intensity of the fluorescence relative to the control peptide” value in data set [2] (arteriosclerotic mouse, back image (FIG. 8B)) is reported as “about two times that of the control peptide”. For the same substance, the “NIR fluorescence of the heart portion, myocardial ischemic rat versus control group (Sham) rat” value in data set [3] is “much stronger NIR fluorescence”.
Regarding “CSVAPR (also: fluorescein or Cy7.5 label) [ApoPep-2, peptide CSVAPR screened for endothelial cells; used fluorescein- or Cy7.5-labeled]”, the “binding of fluorescence-labeled peptide after pre-treatment with unlabeled annexin V” value in the data set with apoptotic A549 cells is “not inhibited”. Moreover, the “binding to normal cells (FACS)” value in data set [4] (A549 without etoposide, 10 μM, 4° C. or 37° C.) is “almost nonexistent or minimal”. Besides, the “cells bound to the peptide at 4° C.” value in data set [4] (etoposide 20 hours, peptide 10 μM, 4° C. 1 hour) amounted to 28%. Further, in data set [4] (etoposide 20 hours, peptide 10 μM, 37° C. 1 hour), the “cells bound to the peptide at 37° C.” value is given as 48%. Also, in data set [5] (4 hours after peptide injection, all the groups, renal clearance), the “ex vivo fluorescence signal from the kidney” value is “strong”. Besides, the “ex vivo fluorescence signal from the isolated tumor, doxorubicin treated group” value in data set [5] (4 hours after peptide injection, compared to Dox− ApoPep-2 and Dox+ control peptide) is “strong”. The “time at which the fluorescence signal from the tumor tissue was most strongly detected” value in data set [5] (Cy7.5-labeled, doxorubicin treated group (5 mg/kg, 12 hours before)) was 2 h. In data set [5] (Dox+, Cy7.5-labeled peptide 50 μM), the “fluorescence signal from the tumor, doxorubicin treated group” value is recorded as “targeted the tumor tissue”. The “fluorescence signal from the tumor, doxorubicin untreated group” value in data set [5] (Dox−, Cy7.5-labeled peptide 50 μM) was “targeting was not observed; also recorded: weakly detected”. Further, the “time from which fluorescence from the tumor was detected” value in data set [5] (fluorescein-labeled, large tumor (1 cm or larger in diameter), no agent) came out at 2 h. In addition, the “labeling of glucose-depleted necrotic cells” value in data set [6] was “did not bind to the necrosis-induced cells; also recorded: no labeling was observed”.
